In patent US20050112573A1, “Method of detecting toxic substance” (priority 2001, published 2005):

System: yeast genes (level of expressed mRNA)
Test: DNA chip analysis of expressed mRNA of yeast genes after 2 h culture with a toxic chemical substance
Type: cell-based, Saccharomyces cerevisiae S288C
Procedure, shortened: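 Values are treated-to-control fluorescence ratios from a whole-yeast-genome DNA chip (65° C, over 12 h hybridization) using Cy3/Cy5-labelled cDNA from mRNA. Log-phase S288C cells in YPD at 25° C were exposed 2 h to a toxicant at sublethal, growth-inhibiting concentration.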

Substance: γ-hexachlorocyclohexane [(7)]
- The level of expressed mRNA in the presence of chemical substance/The level of expressed mRNA in the absence of chemical substance (yeast gene YKL096W): 0.2
- The level of expressed mRNA in the presence of chemical substance/The level of expressed mRNA in the absence of chemical substance (yeast gene YKL139W): 2.6
- The level of expressed mRNA in the presence of chemical substance/ (yeast gene YKL151C, ratio to control without chemical substance, 2 h culture): 5.6
- The level of expressed mRNA in the presence of chemical substance/ (yeast gene YKL153W, ratio to control without chemical substance, 2 h culture): 1.1
- The level of expressed mRNA in the presence of chemical substance/The level of expressed mRNA in the absence of chemical substance (yeast gene YKL165C): 2.1
- The level of expressed mRNA in the presence of chemical substance/The level of expressed mRNA in the absence of chemical substance (yeast gene YKL193C): 2.1
- The level of expressed mRNA in the presence of chemical substance/ (yeast gene YKL195W, ratio to control without chemical substance, 2 h culture): 2.1
- The level of expressed mRNA in the presence of chemical substance/in the absence of chemical substance (yeast gene YKR009C): 1.0
- The level of expressed mRNA in the presence of chemical substance/The level of expressed mRNA in the absence of chemical substance (yeast gene YKR014C): 1.7
- The level of expressed mRNA in the presence of chemical substance/ (yeast gene YKR091W, ratio to control without chemical): 1.3
- The level of expressed mRNA in the presence of chemical substance/ (yeast gene YLR054C, ratio to control without chemical substance, 2 h culture): 1.1
- The level of expressed mRNA in the presence of chemical substance/The level of expressed mRNA in the absence of chemical substance (yeast gene YLR120C): 1.5
- The level of expressed mRNA in the presence of chemical substance/The level of expressed mRNA in the absence of chemical substance (yeast gene YLR136C): 3.9
- The level of expressed mRNA in the presence of chemical substance/ (yeast gene YLR149C, ratio to control without chemical substance, 2 h culture): 1.6
- The level of expressed mRNA in the presence of chemical substance/ (yeast gene YLR152C, ratio to control without chemical substance, 2 h culture): 1.4
- The level of expressed mRNA in the presence of chemical substance/The level of expressed mRNA in the absence of chemical substance (yeast gene YLR178C): 3.3
- The level of expressed mRNA in the presence of chemical substance/ (yeast gene YLR194C, ratio to control without chemical): 1.0
- The level of expressed mRNA in the presence of chemical substance/The level of expressed mRNA in the absence of chemical substance (yeast gene YLR250W): 1.9
- The level of expressed mRNA in the presence of chemical substance/ (yeast gene YLR324W, ratio to control without chemical substance, 2 h culture): 1.0
- The level of expressed mRNA in the presence of chemical substance/The level of expressed mRNA in the absence of chemical substance (yeast gene YLR327C): 5.7
- The level of expressed mRNA in the presence of chemical substance/ (yeast gene YLR350W, ratio to control without chemical substance, 2 h culture): 1.2
- The level of expressed mRNA in the presence of chemical substance/in the absence of chemical substance (yeast gene YLR351C): 1.4
- The level of expressed mRNA in the presence of chemical substance/The level of expressed mRNA in the absence of chemical substance (yeast gene YLR356W): 1.1
- The level of expressed mRNA in the presence of chemical substance/The level of expressed mRNA in the absence of chemical substance (yeast gene YLR362W): 1.9
- The level of expressed mRNA in the presence of chemical substance/in the absence of chemical substance (yeast gene YLR375W): 0.9
- The level of expressed mRNA in the presence of chemical substance/ (yeast gene YLR387C, ratio to control without chemical substance, 2 h culture): 1.1
- The level of expressed mRNA in the presence of chemical substance/The level of expressed mRNA in the absence of chemical substance (yeast gene YLR391W): 0.7
- The level of expressed mRNA in the presence of chemical substance/The level of expressed mRNA in the absence of chemical substance (yeast gene YLR429W): 1.3
- The level of expressed mRNA in the presence of chemical substance/ (yeast gene YLR460C, ratio to control without chemical substance, 2 h culture): 1.1
- The level of expressed mRNA in the presence of chemical substance/ (yeast gene YML117W, ratio to control without chemical substance, 2 h culture): 0.7
- The level of expressed mRNA in the presence of chemical substance/The level of expressed mRNA in the absence of chemical substance (yeast gene YMR004W): 1.2
- The level of expressed mRNA in the presence of chemical substance/ (yeast gene YMR009W, ratio to control without chemical substance, 2 h culture): 1.9
- The level of expressed mRNA in the presence of chemical substance/ (yeast gene YMR067C, ratio to control without chemical substance, 2 h culture): 1.2
- The level of expressed mRNA in the presence of chemical substance/ (yeast gene YMR090W, ratio to control without chemical substance, 2 h culture): 2.7
- The level of expressed mRNA in the presence of chemical substance/The level of expressed mRNA in the absence of chemical substance (yeast gene YMR094W): 0.8
- The level of expressed mRNA in the presence of chemical substance/ (yeast gene YMR095C, ratio to control without chemical): 1.2
- The level of expressed mRNA in the presence of chemical substance/ (yeast gene YMR097C, ratio to control without chemical substance, 2 h culture): 1.5
- The level of expressed mRNA in the presence of chemical substance/ (yeast gene YMR102C, ratio to control without chemical substance, 2 h culture): 1.8
- The level of expressed mRNA in the presence of chemical substance/The level of expressed mRNA in the absence of chemical substance (yeast gene YMR104C): 1.5
- The level of expressed mRNA in the presence of chemical substance/ (yeast gene YMR107W, ratio to control without chemical substance, 2 h culture): 1.2
- The level of expressed mRNA in the presence of chemical substance/ (yeast gene YMR180C, ratio to control without chemical substance, 2 h culture): 1.7
- The level of expressed mRNA in the presence of chemical substance/ (yeast gene YMR184W, ratio to control without chemical substance, 2 h culture): 1.6
- The level of expressed mRNA in the presence of chemical substance/ (yeast gene YMR191W, ratio to control without chemical substance, 2 h culture): 2.0
- The level of expressed mRNA in the presence of chemical substance/The level of expressed mRNA in the absence of chemical substance (yeast gene YMR226C): 1.8
- The level of expressed mRNA in the presence of chemical substance/in the absence of chemical substance (yeast gene YMR267W): 1.2
- The level of expressed mRNA in the presence of chemical substance/The level of expressed mRNA in the absence of chemical substance (yeast gene YMR275C): 0.8
- The level of expressed mRNA in the presence of chemical substance/The level of expressed mRNA in the absence of chemical substance (yeast gene YMR276W): 1.1
- The level of expressed mRNA in the presence of chemical substance/in the absence of chemical substance (yeast gene YMR278W): 1.8
- The level of expressed mRNA in the presence of chemical substance/in the absence of chemical substance (yeast gene YMR293C): 1.2
- The level of expressed mRNA in the presence of chemical substance/ (yeast gene YMR295C, ratio to control without chemical substance, 2 h culture): 1.3
- The level of expressed mRNA in the presence of chemical substance/The level of expressed mRNA in the absence of chemical substance (yeast gene YMR314W): 1.1
- The level of expressed mRNA in the presence of chemical substance/ (yeast gene YMR316W, ratio to control without chemical substance, 2 h culture): 2.0
- The level of expressed mRNA in the presence of chemical substance/The level of expressed mRNA in the absence of chemical substance (yeast gene YNL006W): 1.6
- The level of expressed mRNA in the presence of chemical substance/The level of expressed mRNA in the absence of chemical substance (yeast gene YNL007C): 1.2
- The level of expressed mRNA in the presence of chemical substance/ (yeast gene YNL044W, ratio to control without chemical substance, 2 h culture): 0.9
